Data on 25 compounds can be found in patent US20100035932A1, “NOVEL FORMYL PEPTIDE RECEPTOR LIKE 1 AGONISTS THAT INDUCE MACROPHAGE TUMOR NECROSIS FACTOR ALPHA AND COMPUTATIONAL STRUCTURE-ACTIVITY RELATIONSHIP ANALYSIS OF THEREOF” (priority 2008, published 2010).

As usually defined, the EC50 is the concentration giving half of the maximal effect.

Experiment [1] concerns human neutrophils. Nature of the experiment: Ca2+ mobilization in human neutrophils (FLIPR Calcium 3). The note with it: Neutrophil, read-out: [Ca2+]i EC50. Background: Calcium flux is commonly read through the fluorescence of an indicator in the cells.
Experiment [2] concerns J774.A1 macrophages. As to the kind of experiment: TNF-α production in J774.A1 macrophages (ELISA). It counts as cell-based, murine. The note with it: for fold induction at 50 µM: Mus musculus, J774.A1, 24 h, relative fold of activation compared to vehicle (DMSO) control for 50 μM compound, N.A. = no activity was observed, read-out: TNF-α production.
Experiment [3] has as its system J774.A1 macrophages. As to the kind of experiment: cells. To be noted: Mus musculus, J774.A1, read-out: Ca2+ Mobilization EC50, Murine Mφ.
Experimental: Murine macrophage J774.A1 cells were cultured in DMEM supplemented with 10% (v/v) heat-inactivated fetal bovine serum (FBS), 10 mM HEPES, 100 μg/ml streptomycin, and 100 U/ml penicillin. Cells were grown to confluence in sterile tissue culture flasks and gently detached by scraping. […] All cell cultures were grown at 37° C. in a humidified atmosphere containing 5% CO2. Cell number and viability were assessed microscopically using trypan blue exclusion.

Take `O=C(N/N=C/c1ccc(-c2ccc([N+](=O)[O-])cc2Cl)o1)c1ccc2c(c1)OCO2` [Compound 3]: the EC50 in experiment [1] stood at 0.3 µM. Further, in experiment [2], the fold induction at 50 µM was 30 to 40.
The like results for `CN(C)c1ccc(/C=N\NC(=O)c2ccc([N+](=O)[O-])cc2)cc1` [Compound 4] were, in that order, 9 µM and 20 to 25.
For `O=C(N/N=C/c1ccc(-c2cccc(Cl)c2Cl)o1)c1ccccc1` [Compound 5], in that order: 2.3 µM and 7 to 10.
For the compound `O=C(N/N=C/c1ccc(-c2cc(Cl)ccc2Cl)o1)c1ccc([N+](=O)[O-])cc1` [Compound 7], the EC50 in experiment [1] was 10 µM. Also, the fold induction at 50 µM in experiment [2] was less than 5.
For `O=C(N/N=C/c1ccc(-c2ccc(Cl)c(Cl)c2)o1)c1ccc2c(c1)OCO2` [Compound 8], in that order: 11.9 µM and less than 5.
Turning to `Cc1ccc(C(=O)N/N=C/c2ccc(-c3cccc(C(F)(F)F)c3)o2)cn1` [Compound 9], the EC50 in experiment [1] was found to be 15.8 µM. In addition, the fold induction at 50 µM in experiment [2] was less than 5. Moreover, the “TNF-α production, primary screening of agonists AG 1-26” value in experiment [2] (murine J774.A1 macrophages) was “induced modest levels of TNF-α production”.
For the compound `Cc1ccc(C(=O)N/N=C/c2ccc(-c3cc(Cl)c(Cl)cc3Cl)o2)cn1` [Compound 10], the EC50 in experiment [1] is 32 µM. In addition, the fold induction at 50 µM in experiment [2] is less than 5.
The like results for `O=C(N/N=C1\C(=O)N(CCc2ccccc2)c2ccccc21)c1ccc2c(c1)OCO2` [Compound 17] were, in that order, 8.9 µM and less than 2.
Regarding `CCOc1cc(/C=N\NC(=O)c2ccc3c(c2)OCO3)cc(Br)c1O` [Compound 18], the EC50 in experiment [1] was found to be 12.2 µM. In experiment [2], the fold induction at 50 µM was less than 2.
The like results for `CN(C)c1ccc(/C=N\NC(=O)c2ccccc2)cc1` [Compound 19] were, in that order, 14.5 µM and less than 2.
The like results for `O=C(N/N=C/c1cc(Br)cc(Br)c1OC(=O)c1cccc(F)c1)c1ccc2c(c1)OCO2` [Compound 20] were, in that order, 18.9 µM and less than 2.
For `CCOc1cc(/C=N/NC(=O)c2ccc3c(c2)OCCO3)cc(Br)c1O` [Compound 21], in that order: 21.9 µM and less than 2.
Take `O=C(N/N=C/c1cc(/N=N\c2cccc(C(F)(F)F)c2)ccc1O)c1ccc2c(c1)OCO2` [Compound 28]: the concentration for a half-maximal effect (EC50) in experiment [1] amounted to 8.5 µM.
Turning to `O=C(N/N=C1\C(=O)N(Cc2cccc3ccccc23)c2ccccc21)c1ccc2c(c1)OCO2` [Compound 29], in experiment [1], the EC50 turned out to be 9.3 µM.
In the case of `O=C(N/N=C/c1cc(Br)c(Br)o1)c1ccc2c(c1)OCCO2` [Compound 30], in experiment [1], the EC50 was 9.8 µM.
Still for that read-out and setting: for `O=C(/C=C/c1ccco1)Oc1cccc(/C=N/NC(=O)c2ccc3c(c2)OCO3)c1` [Compound 31] the value was 12.4 µM.
Still for that read-out and setting: for `O=C(N/N=C/c1ccc(-c2ccc(O)c(C(=O)O)c2)o1)c1cccnc1` [Compound 32] the value was 12.5 µM.
Regarding `CN(C)c1ccc(/C=N\NC(=O)c2cccc(F)c2)cc1` [Compound 33], the EC50 in experiment [1] came to 13.1 µM.
As for `CN(C)c1ccc(/C=N/NC(=O)c2ccc3c(c2)OCO3)cc1` [Compound 34], in experiment [1], the EC50 turned out to be 17.9 µM.
Still for that read-out and setting: with `O=C(N/N=C/c1ccco1)c1ccc(Br)cc1O` [Compound 35] the figure was 22.7 µM; with `Cc1ccc(C(=O)N/N=C/c2ccc(C)o2)cc1` [Compound 36], 25.5 µM.
Same read-out and setting: with `O=C(N/N=C/c1c(O)ccc2ccccc12)c1ccc2c(c1)OCO2` [Compound 37] the figure was 26.8 µM; with `COc1ccc(/C=N/NC(=O)c2ccc3c(c2)OCO3)c(OC)c1` [Compound 38], 28.1 µM.
`O=C(N/N=C/c1ccco1)c1ccccc1` [Compound 39]: in experiment [1], the half-maximal effective concentration (EC50) stood at 28.4 µM. In experiment [2] (experimentally determined class), the “Determined class of macrophage TNF-α inducing activity” value was “NA (inactive derivatives were placed in the nonactive group labeled “NA”)”.
Consider `C[C@H](CCC(=O)O)C[C@H](C)C[C@H](C)C(=O)/C=C(\O)[C@H](C)C[C@H](C)C/C=C/[C@@H](C)[C@@H](O)[C@@H](C)[C@@H](O)C[C@@H]1CC[C@@](C)([C@H]2CC[C@@](C)([C@@H](C)O)O2)O1` [ionomycin, reference compound], for which, in experiment [3], the EC50 came to 0.58 ± 0.3 µM.
